Laboratory results reported in patent US11267809B2, “BAF complex modulating compounds and methods of using the same” (THE BOARD OF TRUSTEES OF THE LELAND STANFORD JUNIOR …, priority 2017, dated 2022).

Tests used:
Type in all cases: cell-based, human
[1] = tested on: HCT116 cells infected with shRNA lentivirus targeting ARID1A; test: Synergy viability assay, HCT116 with shARID1A knockdown
Description: SMARCA4, the primary target of our original screen, is present in both human BAF and PBAF complexes in cancer^12. PBAF complexes differ from BAF complexes by incorporation of specific subunits. Specifically, PBAF complexes contain ARID2 (as opposed to ARID1A/B), PHF10 (BAF45a) (as opposed to […] (BAF45d)), PBRM1, and lack the BAF-specific subunit SS18. PBAF specific subunits are also frequently mutated in cancer, specifically renal clear cell carcinomas and cholangiocarcinomas^33-36. To assess whether the lead compound is targeting BAF, PBAF complexes, or both, we constitutively knocked down ARID1A or ARID2 by lentiviral transduction of HCT116 cells and compared the BAFi/ATRi synergy to the wild-type (ARID1A+/+). […] Further, upon knockdown of ARID1A or ARID2 (FIG. 3b), the synergistic effect observed between Baficillin1 and VE-821 was ablated upon loss of ARID1A (FIG. 3e) (CIshARID1A=1.48±0.14), but not loss of shARID2 (CIshARID2=0.42±0.04) (FIG. 3c-e).
(§1) Viability assays were performed in 384-well plates. Cells were plated at 500 cells/well. Each drug was administered in 5-doses with 4 replicates per plate, and each 5×5 drug combination was administered with 8 replicates per plate, 24 hours after seeding. All error bars represent 4 or 8 technical replicates averaged over 3 independent experiments. Media containing fresh drug was replaced every 48 hours. After 5 days, cellular viability was measured using CellTitre blue, as described by the manufacturer.
Lentiviruses were produced in Lenti-X 293T cells (Clonetech) via spinfection with polyethylenimine transfection. 293T-x cells were transfected with PEI (Polysciences Inc., 24765) with lentiviral PLKO shARID1A or GIPZ shARID2 knockdown vectors, co-transfected with packaging vectors pspax2 and pMD2.G as previously described^49. PLKO shRNA construct targeting ARID1A (TRCN0000059090: shRNA-2) was obtained^50 and GIPZ Human ARID2 shRNA was purchased from Dharmacon (CloneId:V2LHS_74399). […]

[2] = tested on: HCT116 (ARID1A−/−) cell line; test: Synergy viability assay, HCT116 ARID1A(-/-)
Description: SMARCA4, the primary target of our original screen, is present in both human BAF and PBAF complexes in cancer^12. PBAF complexes differ from BAF complexes by incorporation of specific subunits. Specifically, PBAF complexes contain ARID2 (as opposed to ARID1A/B), PHF10 (BAF45a) (as opposed to […] (BAF45d)), PBRM1, and lack the BAF-specific subunit SS18. PBAF specific subunits are also frequently mutated in cancer, specifically renal clear cell carcinomas and cholangiocarcinomas^33-36. To assess whether the lead compound is targeting BAF, PBAF complexes, or both, we constitutively knocked down ARID1A or ARID2 by lentiviral transduction of HCT116 cells and compared the BAFi/ATRi synergy to the wild-type (ARID1A+/+).
Isogenic HCT116 ARID1A(+/+) and ARID1A(−/−) cell lines were originally obtained from Horizon Discovery. MCF-7, Cal-51, A-704, and MDA-MB-436, MDA-MB-468, HCC1143, HCC1187, HCC1954, and ACHN cell lines were obtained from American Type […]. All cell lines were grown in McCoy's 5a Media supplemented with 10% FBS.
as §1

Cal-51 cells = test: Synergy viability assay, Cal-51; settings: with VE-821 (1.25-20 uM each)
Description: In ARID1A-deficient tumors, ATR inhibition is thought to trigger premature mitotic entry and chromosome instability that cannot be resolved, resulting in mitotic catastrophe^27. […] We sought to assess whether generic BAF inhibition might sensitize a host of cancers to ATR inhibition. We tested the efficacy of BAFi and ATRi on nine additional human cancer cell lines including seven Breast cancer cell lines (HCC1143, HCC1954, HCC1187, MDAMB-468, MDA-MB-436, Cal-51, MCF-7) and two renal clear cell carcinoma cell lines (A-704, and ACHN). Cal-51 and MCF-7 are both considered aggressive, highly mutated breast cancer cell lines with numerous COSMIC Census gene mutations (FIG. 10). HCC1143 and MDA-MB-468 are sporadic basal-likecancers, HCC1187 is a triple-negative breast cancer, and HCC1954 and MDA-MB-436 are BRCA1 mutant breast cancers which harbor single driver mutations. To assess synergy, each cell line was treated with 5 doses of VE-821 (1.25 uM-20 uM) and 5 doses of Baficillin1 (1.25 uM-20 uM), both independently and with all possible combinations. Like HCT-116 cells, Baficillin1 sensitized MCF-7 and Cal-51 cells lines to treatment with VE-821 (FIG. 6a).
Viability assays were performed in 384-well plates. Cells were plated at 500 cells/well. […] After 5 days, cellular viability was measured using CellTitre blue, as described by the manufacturer.

[3] = single agent, 5 continuous days

CO[C@H]1CN(C)C(=O)c2cc(NC(=O)NC(C)C)ccc2OC[C@H](C)N(Cc2ccc(-c3ccccn3)cc2)C[C@@H]1C [Baficillin1]
sensitivity (cell survival) compared to wild-type HCT116 [1, 3]: slightly less sensitive | combination index (CI shARID1A) ([1]; with VE-821, 5 days): 1.48±0.14 | sensitivity (cell survival) compared to wild-type HCT116 [2, 3]: slightly less sensitive | combination index (CI −/−) ([2]; with VE-821, 5 days): 1.44±0.12 | combination index (CI Cal-51) (Cal-51 cells): 0.57±0.09
